Test results as given in publication PMC7283271, “ADP binding by the Culex quinquefasciatus mosquito D7 salivary protein enhances blood feeding on mammals” (Nature Communications, 2020).

How the values were obtained:
Assay type in all cases: binding
CxD7L1 = CxD7L1 (Culex quinquefasciatus, UniProt A0A1S4K3K8); assay: ITC; set-up: gene D7L1; mature protein, C-terminal 6x-His, HEK293
CxD7L2 [1] = molecular target: T1, CxD7L2 (Culex quinquefasciatus, UniProt B0X6Z1); assay: ITC
T1 construct: gene D7L2; full-length mature protein, C-terminal 6x-His, HEK293
T1 sequence (B0X6Z1 21-313 limits assumed): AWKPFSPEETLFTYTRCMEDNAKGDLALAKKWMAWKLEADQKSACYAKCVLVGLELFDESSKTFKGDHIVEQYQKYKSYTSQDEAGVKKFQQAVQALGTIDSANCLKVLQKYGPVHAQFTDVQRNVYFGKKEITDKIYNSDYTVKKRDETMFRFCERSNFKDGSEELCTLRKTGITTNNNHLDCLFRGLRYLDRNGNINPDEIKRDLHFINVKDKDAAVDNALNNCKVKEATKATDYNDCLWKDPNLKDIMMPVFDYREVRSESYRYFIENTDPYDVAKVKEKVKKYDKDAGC

CxD7L2 [2] = molecular target: T1, CxD7L2; assay: ITC (also with protein saturated with serotonin)

CxD7L1, sequence (A0A1S4K3K8 17-311 limits assumed): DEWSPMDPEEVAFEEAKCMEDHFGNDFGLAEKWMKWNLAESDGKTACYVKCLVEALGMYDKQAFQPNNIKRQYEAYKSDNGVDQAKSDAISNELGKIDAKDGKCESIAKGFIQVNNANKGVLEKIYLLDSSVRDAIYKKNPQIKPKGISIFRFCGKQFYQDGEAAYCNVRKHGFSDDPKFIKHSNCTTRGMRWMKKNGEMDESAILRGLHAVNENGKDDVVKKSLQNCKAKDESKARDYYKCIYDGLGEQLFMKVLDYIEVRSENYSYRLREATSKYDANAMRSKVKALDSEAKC

SMILES | Kd (CxD7L2 [1]) | further results
Nc1ncnc2c1ncn2[C@@H]1O[C@H](COP(=O)(O)O)[C@@H](O)[C@H]1O [AMP] | – | Kd (CxD7L1): 77.5 nM
Nc1ncnc2c1ncn2[C@@H]1O[C@H](COP(=O)(O)OP(=O)(O)OP(=O)(O)O)[C@@H](O)[C@H]1O [ATP] | – | Kd (CxD7L1): 30.8 nM
NCCc1c[nH]cn1 [Histamine] | 383 nM | –
CCCCC/C=C\C\C=C/C=C/C=C/[C@@H](SC[C@H](NC(=O)CC[C@H](N)C(=O)O)C(=O)NCC(=O)O)[C@@H](O)CCCC(=O)O [LTC4] | 152 nM | –
CCCCC/C=C\C\C=C/C=C/C=C/[C@@H](SC[C@H](N)C(=O)NCC(=O)O)[C@@H](O)CCCC(=O)O [LTD4] | – | Kd (CxD7L2 [2]): 156 nM
CCCCC/C=C\C\C=C/C=C/C=C/[C@@H](SC[C@H](N)C(=O)O)[C@@H](O)CCCC(=O)O [LTE4] | 159 nM | –
NCCc1c[nH]c2ccc(O)cc12 [Serotonin] | 7.46 nM | –
